The source of these data is patent US20180369268A1, “METHODS FOR IDENTIFYING INHIBITORS OF "STIMULATOR OF INTERFERON GENE"- DEPENDENT INTERFERON PRODUCTION” (ADURO BIOTECH, INC., priority 2015, published 2018).

T1 sequence (Q86WV6 whole entry R71H/G230A/H232R/R293Q): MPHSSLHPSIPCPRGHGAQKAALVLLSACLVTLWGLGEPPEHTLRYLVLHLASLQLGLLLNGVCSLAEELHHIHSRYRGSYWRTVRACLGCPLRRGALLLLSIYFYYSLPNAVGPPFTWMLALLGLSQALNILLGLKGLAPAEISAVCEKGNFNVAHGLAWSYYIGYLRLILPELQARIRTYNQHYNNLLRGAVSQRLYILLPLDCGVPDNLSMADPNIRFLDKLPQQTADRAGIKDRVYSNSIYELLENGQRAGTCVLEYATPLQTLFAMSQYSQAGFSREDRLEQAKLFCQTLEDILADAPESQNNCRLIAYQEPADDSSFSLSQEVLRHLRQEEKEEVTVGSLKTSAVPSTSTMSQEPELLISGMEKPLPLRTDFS

The first experiment concerns the target T1, STING in THP1 cells (HAQ allele) (Homo sapiens, UniProt Q86WV6, G230A/H232R/R293Q/R71H).
T1 construct: host or cells: THP-1 dual reporter cells
Kind of experiment: THP-1 competition assay with STING agonist 2′3′-RR-(A)(A) (IRF-3 luciferase reporter). In kind it is cell-based.
Conditions: not given
How it is done:
The scaffold molecules and STING inhibitory compounds as described herein are assayed for their ability to inhibit the induction of STING dependent IFN-β production by an agonist compound in a competition assay. Relative induction of IRF-3 signaling in THP-1 cells (HAQ allele) was measured after stimulating the cells with a mix of a scaffold molecule (or any putative STING antagonist) titrated against a constant concentration of the STING agonist 2′3′-RR-(A)(A) in PB buffer (50 mM HEPES pH 7.5, 100 mM KCl, 3 mM MgCl2, 0.1 mM DTT, 85 mM sucrose, 0.2% BSA, 1 mM ATP, 0.1 mM GTP).
One day prior to performing the assay, THP-1 dual (Invivogen) reporter cells were plated at 500,000 cells/mL in 200 μL per well in a 96-well plate and differentiated overnight with 3 μg/mL phorbal myristate acetate in RPMI medium 1640 (4.5 g/L D-glucose, 2.383 g/L HEPES, 300 mg/L L-glutamine, 1.5 g/L sodium bicarbonate, 110 mg/L sodium pyruvate, 10% heat-inactivated fetal bovine serum, 1× penicillin/streptomycin, 0.1 mg/mL normocin).
On the day of the assay, the media was removed from the wells and replaced with 150 μL of fresh media. The titrations against 2′ 3′-RR-(A)(A) in a final volume of 100 μL were made as follows: two-fold dilutions (2,000 μM-3.9 μM) of the scaffold molecule into PB buffer containing 100 μM 2′3′-RR-(A)(A) for a final concentration of 50 μM 2′3′-RR-(A)(A). Compounds were tested in biological triplicate.
The cells were then stimulated with 25 μL of each titration for 30 minutes at 37° C. in a CO2 incubator. After stimulating, the cells were washed twice, first with 100 μL and then 150 μL of fresh media. After washing, 150 μL of media was added to each well and the cells were incubated for 17 hours overnight at 37° C. in a CO2 incubator.
To detect IRF-3 signaling, 50 μL of luciferase substrate (Invivogen QUANTI-Luc coelenterazine-based luminescence reagent reconstituted in 25 mL water) was added to 10 μL of supernatant from each well in a 96-well white opaque plate. Luminescence was measured using a SpectraMax M3 plate reader (Molecular Devices) and relative fold-induction was calculated as the values obtained from wells containing both the scaffold molecule and 2′3′-RR-(A)(A) divided by the values obtained from wells containing 2′3′-RR-(A)(A) alone. The average of the relative fold-induction was plotted against the log concentration of the antagonist. Agonist compounds 2′3′-RR-(G)(A) and RR-(A)(A) were run as controls in this assay (see FIGS. 2A and 2B).
The results are provided for control compounds in FIGS. 2A and 2B and scaffold molecules in FIGS. […]: 2′3′-SR-(3′OTBS-A)(2′F-A) (FIG. 3A, Comp. 6a), SR-(2′F-A)(2′OTBS-A) (FIG. 3B, Comp. 18a), RR-(2,6-DAP)(2,6-DAP) (FIG. 3C, Comp. 23), RS-(2,6-DAP)(2,6-DAP) (FIG. 3D, Comp. 23a), (6-O-propargyl-G)(G) (FIG. 3E, Comp. 25), RR-(2′F-ibG)(2′F-ibG) (FIG. 3F, Comp. 32), RR-(2′F-C)(2′F-A) (FIG. 3G, Comp. 37), RS-(2′F-C)(2′F-A) (FIG. 3H, Comp. 37a), 3′2′-RR-(ibG)(BzA) (FIG. 3I, Comp. 42), 3′2′-SS-(G)(A) (FIG. 3J, Comp. 43), dithio-3′2′-(2′OTBS-G)(3′OTBS-A) isomer 1 (FIG. 3K, Comp. 49, isomer 1), dithio-3′2′-(2′OTBS-G)(3′OTBS-A) isomer 2 (FIG. 3L, Comp. 49, isomer 2), Beta-L-SS-(A)(A) (FIG. 3M, Comp. 48), Beta-L-RS-(A)(A) (FIG. 3N, Comp. 48a), and Beta-L-RR-(A)(A) (FIG. 3O, Comp. 48b). Isomer 1 and 2 of Compound 49 are different isomers, and are each one of compound 49a, 49b, 49c or 49d.
For orientation: A reporter such as luciferase makes a cellular process visible.
In general, IC50 refers to the concentration that gives 50% inhibition. For the compound `CC(C)(C)[Si](C)(C)O[C@H]1[C@H]2O[P@@](=O)(S)OC[C@H]3O[C@@H](n4cnc5c(N)ncnc54)[C@H](F)[C@@H]3O[P@](=O)(S)OC[C@H]1O[C@H]2n1cnc2c(N)ncnc21` [Compound 6a, dithio-[SP, RP]-cyclic-[3′OTBS-A(2′,5′)p-2′F-A(3′,5′)p]], the IC50 turned out to be 2170 µM.

Still in this experiment, the particulars now being: 50 μM 2′3′-RR-(A)(A), scaffold 2,000 μM-3.9 μM, without digitonin, IRF-3 reporter; read-out: IC50 inhibition of 2′3′-RR-(A)(A) agonist activity without digitonin in THP1 cells (HAQ allele).
Turning to `Nc1nc(N)c2ncn([C@@H]3O[C@@H]4CO[P@@](=O)(S)O[C@H]5[C@@H](O)[C@H](n6cnc7c(N)nc(N)nc76)O[C@@H]5CO[P@@](=O)(S)O[C@H]4[C@H]3O)c2n1` [Compound 23, (2R,3R,3aS,5R,7aR,9R,10R,10aS,12R,14aR)-2,9-bis(2,6-diamino-9H-purin-9-yl)-3,10-dihydroxy-5,12-dimercaptooctahydro-2H,7H-difuro[3,2-d:3′,2′-j][1,3,7,9]tetraoxa[2,8]diphosphacyclododecine 5,12-dioxide], the IC50 was determined as 152 µM.

With `Nc1nc(N)c2ncn([C@@H]3O[C@@H]4CO[P@@](=O)(S)O[C@H]5[C@@H](O)[C@H](n6cnc7c(N)nc(N)nc76)O[C@@H]5CO[P@](=O)(S)O[C@H]4[C@H]3O)c2n1` [Compound 23a, (2R,3R,3aS,5R,7aR,9R,10R,10aS,12S,14aR)-2,9-bis(2,6-diamino-9H-purin-9-yl)-3,10-dihydroxy-5,12-dimercaptooctahydro-2H,7H-difuro[3,2-d:3′,2′-j][1,3,7,9]tetraoxa[2,8]diphosphacyclododecine 5,12-dioxide], the IC50 came out at 150 µM.

In the case of `CC(C)C(=O)Nc1nc2c(ncn2[C@@H]2O[C@@H]3CO[P@@](=O)(S)O[C@H]4[C@@H](F)[C@H](n5cnc6c(=O)[nH]c(NC(=O)C(C)C)nc65)O[C@@H]4CO[P@@](=O)(S)O[C@H]3[C@H]2F)c(=O)[nH]1` [Compound 32, N,N′-(((2R,3R,3aR,5R,7aR,9R,10R,10aR,12R,14aR)-3,10-difluoro-5,12-dimercapto-5,12-dioxidooctahydro-2H, 7H-difuro[3,2-d:3′,2′-j][1,3,7,9]tetraoxa[2,8]diphosphacyclododecine-2,9-diyl)bis(6-oxo-6,9-dihydro-1H-purine-9,2-diyl))bis(2-methylpropanamide)], the half-maximal inhibitory concentration (IC50) is 803 µM.

For the compound `Nc1ccn([C@@H]2O[C@@H]3CO[P@@](=O)(S)O[C@H]4[C@@H](F)[C@H](n5cnc6c(N)ncnc65)O[C@@H]4CO[P@@](=O)(S)O[C@H]3[C@H]2F)c(=O)n1` [Compound 37, 4-amino-1-((2R,3R,3aR,5R,7aR,9R,10R,10aR,12R,14aR)-9-(6-amino-9H-purin-9-yl) 3,10-difluoro-5,12-dimercapto 5,12-dioxidooctahydro-2H,7H-difuro[3,2-d:3′,2′-j][1,3,7,9]tetraoxa[2,8]diphosphacyclododecin-2-yl)pyrimidin-2(1H)-one], the concentration for half-maximal inhibition (IC50) was found to be 4120 µM.

`Nc1ccn([C@@H]2O[C@@H]3CO[P@](=O)(S)O[C@H]4[C@@H](F)[C@H](n5cnc6c(N)ncnc65)O[C@@H]4CO[P@@](=O)(S)O[C@H]3[C@H]2F)c(=O)n1` [Compound 37a, 4-amino-1-((2R,3R,3aR,5R,7aR,9R,10R, 10aR,12S,14aR)-9-(6-amino-9H-purin-9-yl)-3,10-difluoro-5,12-dimercapto-5,12-dioxidooctahydro-2H,7H-difuro[3,2-d: 3′,2′-j][1,3,7,9]tetraoxa[2,8]diphosphacyclododecin-2-yl)pyrimidin-2(1H)-one]: the half-inhibitory concentration (IC50) was 3200 µM.

As to `CC(C)C(=O)Nc1nc2c(ncn2[C@@H]2O[C@@H]3CO[P@@](=O)(S)O[C@@H]4[C@H](O)[C@@H](CO[P@@](=O)(S)O[C@H]3[C@H]2O)O[C@H]4n2cnc3c(NC(=O)c4ccccc4)ncnc32)c(=O)[nH]1` [Compound 42, dithio-[RP, RP]-cyclic-[ibG(3′,5′)p-BzA(2′,5′)p]], the IC50 was 966 µM.

Regarding `Nc1nc2c(ncn2[C@@H]2O[C@@H]3CO[P@](=O)(S)O[C@@H]4[C@H](O)[C@@H](CO[P@](=O)(S)O[C@H]3[C@H]2O)O[C@H]4n2cnc3c(N)ncnc32)c(=O)[nH]1` [Compound 43], the IC50 was found to be 4040 µM.

For the compound `Nc1ncnc2c1ncn2[C@H]1O[C@H]2CO[P@](=O)(S)O[C@@H]3[C@H](O)[C@@H](n4cnc5c(N)ncnc54)O[C@H]3CO[P@](=O)(S)O[C@@H]2[C@@H]1O` [Compound 48, (2S,3S,3aR,5S,7aS,9S,10S,10aR,12S,14aS)-2,9-bis(6-amino-9H-purin-9-yl)-3,10-dihydroxy-5,12-dimercaptooctahydro-2H,7H-difuro[3,2-d:3′,2′-j][1,3,7,9]tetraoxa[2,8]diphosphacyclododecine 5,12-dioxide], the half-maximal inhibitory concentration (IC50) was 662 µM.

For the compound `Nc1ncnc2c1ncn2[C@H]1O[C@H]2CO[P@@](=O)(S)O[C@@H]3[C@H](O)[C@@H](n4cnc5c(N)ncnc54)O[C@H]3CO[P@](=O)(S)O[C@@H]2[C@@H]1O` [Compound 48a, Triethylammonium (2S,3S,3aR,5R,7aS,9S,10S,10aR,12S,14aS)-2,9-bis(6-amino-9H-purin-9-yl)-3,10-dihydroxyoctahydro-2H, 7H-difuro[3,2-d: 3′,2′-j][1,3,7,9]tetraoxa[2,8]diphosphacyclododecine-5,12-bis(thiolate) 5,12-dioxide], the concentration for half-maximal inhibition (IC50) was 308 µM.

As to `Nc1ncnc2c1ncn2[C@H]1O[C@H]2CO[P@@](=O)(S)O[C@@H]3[C@H](O)[C@@H](n4cnc5c(N)ncnc54)O[C@H]3CO[P@@](=O)(S)O[C@@H]2[C@@H]1O` [Compound 48b, triethylammonium (2S,3S,3R,5R,7aS,9S,10S,10aR,12R,14aS)-2,9-bis(6-amino-9H-purin-9-yl)-3,10-dihydroxyoctahydro-2H,7H-difuro[3,2-d: 3′,2′-j][1,3,7,9]tetraoxa[2,8]diphosphacyclododecine-5,12-bis(thiolate) 5,12-dioxide], the IC50 stood at 342 µM.

Regarding `C#CCOc1nc(N)nc2c1ncn2[C@@H]1O[C@@H]2COP(=O)(O)O[C@H]3[C@@H](O)[C@H](n4cnc5c(=O)[nH]c(N)nc54)O[C@@H]3COP(=O)(O)O[C@H]2[C@H]1O` [compound 25, 2-amino-9-((2R,3R,3aS,7aR,9R,10R,10aS,14aR)-9-(2-amino-6-(prop-2-yn-1-yloxy)-9H-purin-9-yl)-3,5,10,12-tetrahydroxy-5,12-dioxidooctahydro-2H,7H-difuro[3,2-d:3′,2′-j][1,3,7,9]tetraoxa[2,8]diphosphacyclododecin-2-yl)-1,9-dihydro-6H-purin-6-one], the IC50 was 5010 µM.
